In patent US20060074098A1, “Methods of treatment of amyloidosis using ethanolcyclicamine aspartyl protease inhibitors” (priority 2004, published 2006):
“And” between values parts separate entries of the source, which are not always exact repeats. Equal values may be shown once.

Columns and labels:
[1] = tested on: catE / beta-secretase (BACE); assay: CatE/BACE selectivity (ratio of IC50 values); assay type: biochemical; details: each value is an average of four experimental runs, multiple values = more than one experiment
Protocol: (§1) Investigation of potential beta-secretase inhibitors produced compounds with increased selectivity for beta-secretase over other aspartyl proteases such as cathepsin D (catD), cathepsin E (catE), Human Immunodeficiency Viral (HIV) protease, and renin. Selectivity was calculated as a ratio of inhibition (IC50) values in which the inhibition of beta-secretase was compared to the inhibition of other aspartyl proteases.
The compounds of formula (I) can be selective for beta-secretase versus catE. […] Selectivity is reported as the ratio of IC50(catE):IC50(BACE).
(§2) In the following examples, each value is an average of four experimental runs and multiple values for one compound indicate that more than one experiment was conducted.

[2] = tested on: catD / beta-secretase (BACE); assay: CatD/BACE selectivity (ratio of IC50 values); assay type: biochemical; details: each value is an average of four experimental runs; multiple values = more than one experiment
Protocol: as §1
The compounds of formula (I) can be selective for beta-secretase versus catD.
as §2

SMILES	Selectivity IC50 catE/IC50 BACE ([1]; listed as 8.3)	Selectivity IC50 catD/IC50 BACE [2]	Selectivity IC50 catE/IC50 BACE [1]
CCCC1CCNC(C(O)C(Cc2cc(F)cc(F)c2)NC(C)=O)C1 (stereo not shown) [Example 8.1, N-[1-(3,5-Difluoro-benzyl)-2-hydroxy-2-(4-propylpiperidin-2-yl)-ethyl]-acetamide]	> 2.9 and > 2.4	> 2.9 and > 2.4	
CC(=O)NC(Cc1cc(F)cc(F)c1)C(O)C1CC2CCCCC2CN1 (stereo not shown) [Example 8.2, N-(1-(decahydroisoquinolin-3-yl)-3-(3,5-difluorophenyl)-1-hydroxypropan-2-yl)acetamide]		>3.3	>3.3
